Reference: the supplement of paper PMC10331698
± gives the standard deviation of the averaged measurements.

Legend:
Experiment in all cases: level (log10 ratio to DMSO vehicle control); higher = higher biomarker level / cell amount than vehicle control
Conditions in all cases: in DMSO
[1] = compound: C=CC(=O)OCC(F)(F)C(F)(F)C(F)(F)C(F)(F)C(F)(F)C(F)(F)C(F)(F)F [1H,1H-Perfluorooctyl acrylate]
Experimental: (§1)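 BioMAP Diversity Plus panel of 12 human primary cell co-culture systems (3C, 4H, LPS, SAg, BT, BF4T, BE3C, CASM3C, HDF3CGF, KF3CT, MyoF, Mphg). Compounds were added 1 h before stimulation and left for 24 h (MyoF 48 h; BT 72 h for soluble read-outs or 6 d for IgG). Biomarkers were read by ELISA, cytotoxicity by SRB, PBMC viability and proliferation by Alamar Blue. Each well value was divided by the mean of 8 DMSO control wells on the same plate and log10 transformed; duplicate blinded samples were tested at 4 concentrations.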

[2] = compound: COC(=O)CCC(F)(F)C(F)(F)C(F)(F)C(F)(F)F [Methyl 2H,2H,3H,3H-perfluoroheptanoate]
Experimental: as §1

[3] = compound: FC(F)(F)C(F)(C(F)(F)F)C(F)(F)C(F)(F)CC1CO1 [3-(Perfluoro-3-methylbutyl)-1,2-propenoxide]
Experimental: as §1

Perfluoro-1-iodohexane = compound: FC(F)(F)C(F)(F)C(F)(F)C(F)(F)C(F)(F)C(F)(F)I [Perfluoro-1-iodohexane]
Experimental: as §1

[4] = compound: FC(F)C(F)(F)COCC1CO1 [((2,2,3,3-Tetrafluoropropoxy)methyl)oxirane]
Experimental: as §1

Perfluorodecanoic acid = compound: O=C(O)C(F)(F)C(F)(F)C(F)(F)C(F)(F)C(F)(F)C(F)(F)C(F)(F)C(F)(F)C(F)(F)F [Perfluorodecanoic acid]
Experimental: as §1

[5] = compound: O=C(O)C(F)(F)C(F)(F)C(F)(F)C(F)(F)C(F)(F)C(F)(F)C(F)(F)C(F)F [9-H-Perfluorononanoic acid]
Experimental: as §1

Test System | level (log10) ([1]; 6700 nM) | level (log10) ([1]; 20000 nM) | level (log10) ([1]; 60000 nM) | level (log10) ([2]; 6700 nM) | level (log10) ([2]; 20000 nM) | level (log10) ([2]; 60000 nM) | level (log10) ([3]; 6700 nM) | level (log10) ([3]; 20000 nM) | level (log10) (Perfluoro-1-iodohexane; 6700 nM) | level (log10) (Perfluoro-1-iodohexane; 20000 nM) | level (log10) (Perfluoro-1-iodohexane; 60000 nM) | level (log10) ([4]; 6700 nM) | level (log10) ([4]; 20000 nM) | level (log10) ([4]; 60000 nM) | level (log10) (Perfluorodecanoic acid; 6700 nM) | level (log10) (Perfluorodecanoic acid; 20000 nM) | level (log10) ([5]; 6700 nM) | level (log10) ([5]; 20000 nM) | level (log10) ([5]; 60000 nM)
LPS:sTNF-alpha | 0.0115 ± 0.00071 | 0.0285 ± 0.011 | 0.021 ± 0.013 | 0.0245 ± 0.005 | -0.007 ± 0.011 | -0.025 ± 0.033 | 0.0005 ± 0.0078 | -0.0025 ± 0.005 | 0.0005 ± 0.022 | -0.008 ± 0.016 | 0.0075 ± 0.029 | 0.0135 ± 0.0021 | 0.015 ± 0.013 | 0.0175 ± 0.0021 | -0.0245 ± 0.011 | -0.02 ± 0.017 | -0.0145 ± 0.012 | -0.0055 ± 0.016 | -0.0115 ± 0.019
SAg:CCL2/MCP-1 | -0.014 ± 0.0071 | -0.025 ± 0.0071 | 0.001 ± 0.024 | 0 ± 0.014 | -0.027 ± 0.0014 | -0.0015 ± 0.0035 | -0.0225 ± 0.039 | 0.004 ± 0.0085 | 0.006 ± 0.018 | -0.0045 ± 0.021 | 0.005 ± 0.05 | -0.0305 ± 0.046 | -0.0185 ± 0.016 | -0.014 ± 0.011 | 0.0065 ± 0.0064 | -0.017 ± 0.0014 | -0.009 ± 0.014 | -0.022 ± 0.0014 | 0.0245 ± 0.04
SAg:CD38 | -0.016 ± 0.018 | -0.009 ± 0.016 | -0.02 ± 0.014 | -0.018 ± 0.017 | -0.0015 ± 0.018 | -0.009 ± 0.0028 | -0.0005 ± 0.0021 | 0.015 ± 0.018 | -0.059 ± 0.15 | -0.01 ± 0.02 | 0.0005 ± 0.076 | -0.007 ± 0.0014 | -0.006 ± 0.011 | 0.002 ± 0.023 | -0.009 ± 0.0014 | -0.017 ± 0.0057 | 0.0255 ± 0.039 | -0.015 ± 0.0085 | -0.016 ± 0.011
SAg:CD40 | -0.005 | -0.001 ± 0.0028 | -0.02 ± 0.035 | -0.042 ± 0.04 | -0.0415 ± 0.04 | -0.053 ± 0.065 | -0.018 ± 0.025 | -0.0205 ± 0.039 | -0.019 ± 0.013 | -0.0195 ± 0.018 | 0.012 ± 0.061 | -0.0095 ± 0.018 | -0.009 ± 0.0057 | -0.0015 ± 0.0078 | -0.0095 ± 0.021 | -0.0305 ± 0.012 | -0.0265 ± 0.012 | -0.0275 ± 0.016 | -0.059 ± 0.02
SAg:CD62E/E-Selectin | -0.0035 ± 0.0064 | -0.036 ± 0.0042 | -0.0335 ± 0.016 | -0.014 ± 0.014 | -0.03 ± 0.0071 | 0.007 ± 0.0057 | -0.0195 ± 0.019 | -0.012 | -0.009 ± 0.0014 | 0.0055 ± 0.019 | 0.0095 ± 0.044 | 0.0075 ± 0.018 | -0.002 ± 0.023 | 0.009 ± 0.047 | 0.0005 ± 0.015 | 0.0165 ± 0.023 | -0.015 ± 0.013 | -0.0075 ± 0.013 | 0.065 ± 0.031
SAg:CD69 | -0.0205 ± 0.021 | -0.024 ± 0.011 | -0.035 ± 0.018 | -0.0375 ± 0.035 | -0.0225 ± 0.019 | -0.0085 ± 0.05 | -0.0125 ± 0.015 | -0.006 ± 0.059 | -0.0155 ± 0.033 | -0.017 ± 0.024 | 0.006 ± 0.0014 | -0.0225 ± 0.0078 | -0.018 ± 0.014 | 0 ± 0.03 | -0.0335 ± 0.015 | -0.062 ± 0.0057 | -0.0335 ± 0.025 | -0.034 ± 0.0085 | -0.0245 ± 0.00071
SAg:CXCL8/IL-8 | -0.0135 ± 0.053 | 0.001 ± 0.052 | 0.003 ± 0.024 | -0.007 ± 0.05 | -0.0085 ± 0.026 | 0.0165 ± 0.033 | 0.0035 ± 0.0021 | 0.013 ± 0.041 | 0.0365 ± 0.016 | -0.004 ± 0.0071 | 0.002 ± 0.059 | -0.004 ± 0.011 | -0.0335 ± 0.011 | 0.02 ± 0.018 | -0.0325 ± 0.03 | -0.064 ± 0.038 | 0.01 ± 0.018 | 0.0005 ± 0.0064 | 0.0715 ± 0.013
SAg:CXCL9/MIG | 0.003 ± 0.0099 | -0.009 ± 0.0014 | 0.0015 ± 0.012 | -0.0195 ± 0.012 | -0.0095 ± 0.0021 | -0.0065 ± 0.018 | -0.0255 ± 0.005 | -0.002 ± 0.018 | -0.0205 ± 0.028 | -0.005 ± 0.014 | 0.0045 ± 0.032 | -0.002 ± 0.011 | -0.006 ± 0.014 | 0.0065 ± 0.0092 | -0.006 ± 0.011 | -0.0025 ± 0.015 | -0.01 ± 0.017 | -0.0055 ± 0.015 | 0.0055 ± 0.0064
SAg:PBMC Cytotoxicity | -0.004 ± 0.017 | 0.0125 ± 0.053 | -0.0535 ± 0.071 | 0.033 ± 0.021 | 0.029 ± 0.058 | 0.029 ± 0.057 | 0.008 ± 0.0071 | 0.016 ± 0.023 | -0.025 ± 0.023 | -0.014 ± 0.0014 | -0.024 ± 0.028 | 0.031 ± 0.021 | -0.006 | 0.0205 ± 0.023 | 0.032 ± 0.0028 | 0.0625 ± 0.061 | 0.007 ± 0.023 | 0.045 ± 0.0099 | 0.0765 ± 0.013
SAg:Proliferation | 0.004 ± 0.0042 | -0.045 ± 0.047 | -0.128 ± 0.038 | 0.0115 ± 0.029 | 0.001 ± 0.0014 | 0.0075 ± 0.0078 | 0.028 ± 0.017 | 0.007 ± 0.12 | -0.031 ± 0.044 | -0.055 ± 0.02 | -0.0395 ± 0.04 | -0.0075 ± 0.019 | -0.02 ± 0.03 | -0.0095 ± 0.0092 | 0.0435 ± 0.019 | 0.0255 ± 0.032 | 0.052 ± 0.065 | 0.0735 ± 0.037 | 0.048 ± 0.095
SAg:SRB | -0.0005 ± 0.0035 | -0.002 ± 0.0028 | 0.0075 ± 0.0021 | 0.008 ± 0.027 | 0.0005 ± 0.0064 | -0.0085 ± 0.0092 | -0.006 ± 0.023 | -0.0025 ± 0.0021 | -0.0075 ± 0.011 | -0.002 ± 0.0014 | -0.0045 ± 0.011 | -0.007 ± 0.0057 | -0.0075 ± 0.0064 | -0.005 ± 0.014 | -0.0035 ± 0.012 | -0.008 ± 0.013 | -0.002 ± 0.025 | -0.003 ± 0.013 | -0.036 ± 0.0071
